The source made the active and inactive calls. How the calls were made is not given here.
System: CCRIS mutagenicity, Ames/micronucleus/aberration tests
Experiment: CCRIS mutagenicity studies
[1] = Test System: AMES SALMONELLA TYPHIMURIUM, Strain/Indicator: TA1535, Metabolic Activation: NONE, Method: PREINCUBATION
[2] = Test System: AMES SALMONELLA TYPHIMURIUM, Strain/Indicator: TA98, Metabolic Activation: HAMSTER, LIVER, S-9, AROCLOR 1254, Method: STANDARD PLATE
[3] = Test System: AMES SALMONELLA TYPHIMURIUM, Strain/Indicator: TA98, Metabolic Activation: NONE, Method: STANDARD PLATE
[4] = Test System: AMES SALMONELLA TYPHIMURIUM, Strain/Indicator: TA98, Metabolic Activation: RAT, LIVER, S-9, AROCLOR 1254, Method: STANDARD PLATE
[5] = Test System: AMES SALMONELLA TYPHIMURIUM, Strain/Indicator: TA100, Metabolic Activation: HAMSTER, LIVER, S-9, AROCLOR 1254, Method: STANDARD PLATE
[6] = Test System: AMES SALMONELLA TYPHIMURIUM, Strain/Indicator: TA100, Metabolic Activation: NONE, Method: STANDARD PLATE
[7] = Test System: AMES SALMONELLA TYPHIMURIUM, Strain/Indicator: TA100, Metabolic Activation: RAT, LIVER, S-9, AROCLOR 1254, Method: STANDARD PLATE
[8] = Test System: AMES SALMONELLA TYPHIMURIUM, Strain/Indicator: TA1535, Metabolic Activation: HAMSTER, LIVER, S-9, AROCLOR 1254, Method: STANDARD PLATE
[9] = Test System: AMES SALMONELLA TYPHIMURIUM, Strain/Indicator: TA1535, Metabolic Activation: NONE, Method: STANDARD PLATE
[10] = Test System: AMES SALMONELLA TYPHIMURIUM, Strain/Indicator: TA1535, Metabolic Activation: RAT, LIVER, S-9, AROCLOR 1254, Method: STANDARD PLATE
[11] = Test System: AMES SALMONELLA TYPHIMURIUM, Strain/Indicator: TA1537, Metabolic Activation: HAMSTER, LIVER, S-9, AROCLOR 1254, Method: STANDARD PLATE
[12] = Test System: AMES SALMONELLA TYPHIMURIUM, Strain/Indicator: TA1537, Metabolic Activation: NONE, Method: STANDARD PLATE
[13] = Test System: AMES SALMONELLA TYPHIMURIUM, Strain/Indicator: TA1537, Metabolic Activation: RAT, LIVER, S-9, AROCLOR 1254, Method: STANDARD PLATE
[14] = Test System: AMES SALMONELLA TYPHIMURIUM, Strain/Indicator: TA1538, Metabolic Activation: HAMSTER, LIVER, S-9, AROCLOR 1254, Method: STANDARD PLATE
[15] = Test System: AMES SALMONELLA TYPHIMURIUM, Strain/Indicator: TA1538, Metabolic Activation: NONE, Method: STANDARD PLATE
[16] = Test System: AMES SALMONELLA TYPHIMURIUM, Strain/Indicator: TA1538, Metabolic Activation: RAT, LIVER, S-9, AROCLOR 1254, Method: STANDARD PLATE
[17] = Test System: MOUSE LYMPHOMA, Strain/Indicator: L5178Y (TK+/TK-), Metabolic Activation: NONE, Method: SUSPENSION/PLATE
[18] = Test System: MOUSE LYMPHOMA, Strain/Indicator: L5178Y (TK+/TK-), Metabolic Activation: RAT, LIVER, S-9, AROCLOR 1254, Method: SUSPENSION/PLATE

SMILES	mutagenic call [1]	mutagenic call [2]	mutagenic call [3]	mutagenic call [4]	mutagenic call [5]	mutagenic call [6]	mutagenic call [7]	mutagenic call [8]	mutagenic call [9]	mutagenic call [10]	mutagenic call [11]	mutagenic call [12]	mutagenic call [13]	mutagenic call [14]	mutagenic call [15]	mutagenic call [16]	mutagenic call [17]	mutagenic call [18]	also measured
C[n+]1c2cc(N)ccc2cc2ccc(N)cc21	inactive; negative	–	–	–	–	–	–	–	–	–	–	–	–	–	–	–	–	–	mutagenic call (Test System: AMES SALMONELLA TYPHIMURIUM, Strain/Indicator: TA1535, Metabolic Activation: RAT, LIVER, S-9, TETRACHLOROBIPHENYL, Method: PREINCUBATION): inactive; negative; mutagenic call (Test System: AMES SALMONELLA TYPHIMURIUM, Strain/Indicator: TA1537, Metabolic Activation: NONE, Method: PREINCUBATION): active; positive; mutagenic call (Test System: AMES SALMONELLA TYPHIMURIUM, Strain/Indicator: TA1537, Metabolic Activation: RAT, LIVER, S-9, TETRACHLOROBIPHENYL, Method: PREINCUBATION): active; positive; mutagenic call (Test System: AMES SALMONELLA TYPHIMURIUM, Strain/Indicator: TA1538, Metabolic Activation: NONE, Method: PREINCUBATION): inactive; negative; mutagenic call (Test System: AMES SALMONELLA TYPHIMURIUM, Strain/Indicator: TA1538, Metabolic Activation: RAT, LIVER, S-9, TETRACHLOROBIPHENYL, Method: PREINCUBATION): active; positive; mutagenic call (Test System: AMES SALMONELLA TYPHIMURIUM, Strain/Indicator: TA1977, Metabolic Activation: NONE, Method: PREINCUBATION): active; positive; mutagenic call (Test System: AMES SALMONELLA TYPHIMURIUM, Strain/Indicator: TA1977, Metabolic Activation: RAT, LIVER, S-9, TETRACHLOROBIPHENYL, Method: PREINCUBATION): active; positive; mutagenic call (Test System: AMES SALMONELLA TYPHIMURIUM, Strain/Indicator: TA1978, Metabolic Activation: NONE, Method: PREINCUBATION): inactive; negative; mutagenic call (Test System: AMES SALMONELLA TYPHIMURIUM, Strain/Indicator: TA1978, Metabolic Activation: RAT, LIVER, S-9, TETRACHLOROBIPHENYL, Method: PREINCUBATION): inactive; negative
CCNc1ccccc1	inactive; negative	–	–	–	–	–	–	–	–	–	–	–	–	–	–	–	–	–	mutagenic call (Test System: AMES SALMONELLA TYPHIMURIUM, Strain/Indicator: TA97, Metabolic Activation: HAMSTER, LIVER, S-9, AROCLOR 1254 (10 OR 30%), Method: PREINCUBATION): inactive; negative; mutagenic call (Test System: AMES SALMONELLA TYPHIMURIUM, Strain/Indicator: TA97, Metabolic Activation: NONE, Method: PREINCUBATION): inactive; negative; mutagenic call (Test System: AMES SALMONELLA TYPHIMURIUM, Strain/Indicator: TA97, Metabolic Activation: RAT, LIVER, S-9, AROCLOR 1254 (10 OR 30%), Method: PREINCUBATION): inactive; negative; mutagenic call (Test System: AMES SALMONELLA TYPHIMURIUM, Strain/Indicator: TA98, Metabolic Activation: HAMSTER, LIVER, S-9, AROCLOR 1254 (10 OR 30%), Method: PREINCUBATION): inactive; negative; mutagenic call (Test System: AMES SALMONELLA TYPHIMURIUM, Strain/Indicator: TA98, Metabolic Activation: NONE, Method: PREINCUBATION): inactive; negative; mutagenic call (Test System: AMES SALMONELLA TYPHIMURIUM, Strain/Indicator: TA98, Metabolic Activation: RAT, LIVER, S-9, AROCLOR 1254 (10 OR 30%), Method: PREINCUBATION): inactive; negative; mutagenic call (Test System: AMES SALMONELLA TYPHIMURIUM, Strain/Indicator: TA100, Metabolic Activation: HAMSTER, LIVER, S-9, AROCLOR 1254 (10 OR 30%), Method: PREINCUBATION): inactive; negative; mutagenic call (Test System: AMES SALMONELLA TYPHIMURIUM, Strain/Indicator: TA100, Metabolic Activation: NONE, Method: PREINCUBATION): inactive; negative; mutagenic call (Test System: AMES SALMONELLA TYPHIMURIUM, Strain/Indicator: TA100, Metabolic Activation: RAT, LIVER, S-9, AROCLOR 1254 (10 OR 30%), Method: PREINCUBATION): inactive; negative; mutagenic call (Test System: AMES SALMONELLA TYPHIMURIUM, Strain/Indicator: TA1535, Metabolic Activation: HAMSTER, LIVER, S-9, AROCLOR 1254 (10 OR 30%), Method: PREINCUBATION): inactive; negative; mutagenic call (Test System: AMES SALMONELLA TYPHIMURIUM, Strain/Indicator: TA1535, Metabolic Activation: RAT, LIVER, S-9, AROCLOR 1254 (10 OR 30%), Method: PREINCUBATION): inactive; negative
Oc1ccc2c(c1)OCO2	–	inactive; negative	inactive; negative	inactive; negative	inactive; negative	inactive; negative	inactive; negative	inactive; negative	inactive; negative	inactive; negative	inactive; negative	inactive; negative	inactive; negative	inactive; negative	inactive; negative	inactive; negative	active; positive	active; positive	mutagenic call (Test System: Mouse lymphoma, Strain/Indicator: L5178Y (tk+/tk-), Metabolic Activation: None, Method: Suspension/plate): active; positive; mutagenic call (Test System: Mouse lymphoma, Strain/Indicator: L5178Y (tk+/tk-), Metabolic Activation: Rat, Liver, S-9, Aroclor 1254, Method: Suspension/plate): active; positive
C[Si](C)(C)O[Si](C)(C)O[Si](C)(C)C	–	inactive; negative	inactive; negative	inactive; negative	inactive; negative	inactive; negative	inactive; negative	inactive; negative	inactive; negative	inactive; negative	inactive; negative	inactive; negative	inactive; negative	inactive; negative	inactive; negative	inactive; negative	active; positive. reevaluation of results: positive	inactive; negative. reevaluation of results: negative	mutagenic call (Test System: E. COLI, Strain/Indicator: WP2, Metabolic Activation: NONE, Method: STANDARD PLATE): inactive; negative; mutagenic call (Test System: E. COLI, Strain/Indicator: WP2, Metabolic Activation: RAT, LIVER, S-9, AROCLOR 1254, Method: STANDARD PLATE): inactive; negative

Source: PubChem BioAssay AID1259407 (Chemical Carcinogenesis Research Information System (CCRIS), 2018)
